“Also recorded” adds a separate entry of the source.
Legend:
[1] = system: cachectic Balb/c mice injected with C26 tumor cells; assay: Kaplan-Meier survival analysis of cachectic mice (C26 model); type: in vivo, mouse
[2] = system: cachectic Balb/c mice injected with C26 tumor cells; assay: Body weight of cachectic mice (C26 cachexia mouse model); type: in vivo
[3] = ~50 day period, two 3-day/one-injection-per-day cycles s.c., 0.3 mg Cytarabine, 0.1 mg Ketorolac or combination vs PBS
[4] = 0.3 mg Cytarabine, 0.1 mg Ketorolac or combination (0.3 mg + 0.1 mg) in PBS s.c. on three consecutive days (1 cycle), 8 days observation, vs untreated

SMILES	survival (Kaplan-Meier) ([1]; two cycles of daily oral administration, 40 day period, vs PBS vehicle)	survival (Kaplan-Meier) ([1]; two cycles of daily oral administration, 40 day period, vs PBS vehicle, listed as (R)-ketorolac)	body weight of cachectic mice ([2]; 0.05 mg orally, three consecutive days per cycle, 6 days/2 cycles, vs PBS)	body weight of cachectic mice ([2]; 0.05 mg orally, three consecutive days per cycle, 6 days/2 cycles, vs PBS, listed as (R)-ketorolac)	survival (Kaplan-Meier) [1, 3]	body weight of cachectic mice [2, 4]	transient weight loss after treatment ([2]; days 0-5 after start of treatment, 0.3 mg Cytarabine alone vs combination with 0.1 mg Ketorolac, s.c.)
O=C(c1ccccc1)c1ccc2n1CC[C@H]2C(=O)O [(R)-Ketorolac]	prolong survival of cachectic mice	significant efficacy as a single agent increasing the survival of cachectic mice	reverse body weight drop	regained body weight after initiation of the treatment and maintained stabilized body weight during the treatment			
Nc1ccn([C@@H]2O[C@H](CO)[C@@H](O)[C@@H]2O)c(=O)n1 [Cytarabine, 1-(β-D-Arabinofuranosyl)cytosine]					highly significant increase in survival; also recorded: prolong survival of cachectic mice	the body weight drop eventually reverses for all treated mice; also recorded: reverse body weight drop in cachectic mice	transient weight loss seen on days 0-5
O=C(c1ccccc1)c1ccc2n1CCC2C(=O)O (stereo not drawn) [Ketorolac, Ketorolac tromethamine]					finally ketorolac alone	the body weight drop eventually reverses for all treated mice; also recorded: reverse body weight drop in cachectic mice	
